Data: PubChem BioAssay (NCI)
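All cell lines were grown in 96-well plates and treated with compound for 48 hours. GI50: concentration for 50% inhibition of growth. TGI: concentration producing complete growth inhibition.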

Columns and labels:
Assay in all cases: NCI-60 cell line screen, 48 h
[1] = test system: LOX IMVI melanoma
[2] = test system: UACC-257 melanoma
[3] = test system: MOLT-4 leukemia
[4] = test system: BT-549 breast
[5] = test system: SK-MEL-28 melanoma
[6] = test system: SN12C renal
[7] = test system: UO-31 renal
[8] = test system: PC-3 prostate
[9] = test system: A549 NSCLC
[10] = test system: SF-539 CNS
[11] = test system: NCI-H226 lung
[12] = test system: KM12 colon
[13] = test system: OVCAR-3 ovarian
[14] = test system: SK-MEL-5 melanoma
[15] = test system: A498 renal
[16] = test system: K-562 leukemia
[17] = test system: SK-OV-3 ovarian
[18] = test system: HT29 colon
[19] = test system: OVCAR-5 ovarian
[20] = test system: RPMI-8226 leukemia
[21] = test system: SR leukemia
[22] = test system: OVCAR-4 ovarian
[23] = test system: IGROV1 ovarian
[24] = test system: HCC-2998 colon
[25] = test system: TK-10 renal
[26] = test system: U251 CNS
[27] = test system: MDA-MB-231 breast
[28] = test system: CCRF-CEM leukemia
[29] = test system: SNB-75 CNS
[30] = test system: SF-295 CNS
[31] = test system: UACC-62 melanoma
[32] = test system: SK-MEL-2 melanoma
[33] = test system: EKVX NSCLC
[34] = test system: HL-60(TB) leukemia
[35] = test system: HS 578T breast
[36] = test system: SF-268 CNS
[37] = test system: MCF7 breast
[38] = test system: OVCAR-8 ovarian
[39] = test system: COLO 205 colon
[40] = test system: RXF 393 renal
[41] = test system: NCI-H460 lung
[42] = test system: T-47D breast
[43] = test system: HCT-15 colon
[44] = test system: NCI-H522 lung
[45] = test system: HCT-116 colon
[46] = test system: HOP-92 NSCLC
[47] = test system: ACHN renal
[48] = test system: SNB-19 CNS
[49] = test system: NCI-H23 lung
[50] = test system: MALME-3M melanoma
[51] = test system: M14 melanoma
[52] = test system: DU-145 prostate
[53] = test system: 786-0 renal
[54] = test system: NCI/ADR-RES ovarian
[55] = test system: SW-620 colon
[56] = test system: HOP-62 NSCLC
[57] = test system: MDA-MB-435

Nc1ncccc1-c1nc2ccc(-c3ccccc3)nc2n1-c1ccc(C2(N)CCC2)cc1
GI50 [1]: 1370 nM | TGI [1]: 2770 nM | GI50 [2]: 1280 nM | TGI [2]: 2730 nM | GI50 [3]: 188 nM | TGI [3]: 7880 nM | GI50 [4]: 344 nM | TGI [4]: 5140 nM | GI50 [5]: 1200 nM | TGI [5]: 2660 nM | GI50 [6]: 2290 nM | TGI [6]: 13500 nM | GI50 [7]: 278 nM | TGI [7]: 2030 nM | GI50 [8]: 53.3 nM | TGI [8]: 3390 nM | GI50 [9]: 1690 nM | TGI [9]: 6810 nM | GI50 [10]: 978 nM | TGI [10]: 2520 nM | GI50 [11]: 5020 nM | TGI [11]: 23700 nM | GI50 [12]: 1780 nM | TGI [12]: 6930 nM | GI50 [13]: 353 nM | TGI [13]: 10600 nM | GI50 [14]: 1360 nM | TGI [14]: 2670 nM | GI50 [15]: 79.1 nM | TGI [15]: 654 nM | GI50 [16]: 1890 nM | TGI [16]: 4500 nM | GI50 [17]: 166 nM | TGI [17]: 3010 nM | GI50 [18]: 435 nM | TGI [18]: 3370 nM | GI50 [19]: 1530 nM | TGI [19]: 8230 nM | GI50 [20]: 1740 nM | TGI [20]: 4780 nM | GI50 [21]: 1740 nM | TGI [21]: 4750 nM | GI50 [22]: 4060 nM | TGI [22]: 18700 nM | GI50 [23]: 34.2 nM | TGI [23]: 863 nM | GI50 [24]: 1190 nM | TGI [24]: 2770 nM | GI50 [25]: 719 nM | TGI [25]: 8010 nM | GI50 [26]: 746 nM | TGI [26]: 2310 nM | GI50 [27]: 1460 nM | TGI [27]: 3390 nM | GI50 [28]: 437 nM | TGI [28]: 9860 nM | GI50 [29]: 85.9 nM | TGI [29]: 1700 nM | GI50 [30]: 256 nM | TGI [30]: 2300 nM | GI50 [31]: 1370 nM | TGI [31]: 2990 nM | GI50 [32]: 1650 nM | TGI [32]: 3540 nM | GI50 [33]: 1920 nM | TGI [33]: 16200 nM | GI50 [34]: 1830 nM | TGI [34]: 3920 nM | GI50 [35]: 253 nM | TGI [35]: 2310 nM | GI50 [36]: 2050 nM | TGI [36]: 12400 nM | GI50 [37]: 46.5 nM | TGI [37]: 1680 nM | GI50 [38]: 2060 nM | TGI [38]: 6240 nM | GI50 [39]: 422 nM | TGI [39]: 2140 nM | GI50 [40]: 214 nM | TGI [40]: 1630 nM | GI50 [41]: 333 nM | TGI [41]: 2990 nM | GI50 [42]: < 11.8 nM | TGI [42]: 158 nM | GI50 [43]: 1340 nM | TGI [43]: 4270 nM | GI50 [44]: 1530 nM | TGI [44]: 3470 nM | GI50 [45]: 1430 nM | TGI [45]: 2910 nM | GI50 [46]: 64.4 nM | TGI [46]: 1200 nM | GI50 [47]: 1140 nM | TGI [47]: 3190 nM | GI50 [48]: 1500 nM | TGI [48]: 3670 nM | GI50 [49]: 5190 nM | TGI [49]: 21500 nM | GI50 [50]: 197 nM | TGI [50]: 1840 nM | GI50 [51]: 1400 nM | TGI [51]: 2960 nM | GI50 [52]: 2980 nM | TGI [52]: 15000 nM | GI50 [53]: 212 nM | TGI [53]: 1600 nM | GI50 [54]: 2430 nM | TGI [54]: 14600 nM | GI50 [55]: 1530 nM | TGI [55]: 3350 nM | GI50 [56]: 1900 nM | TGI [56]: 8480 nM | GI50 [57]: 1350 nM | TGI [57]: 2880 nM
